Measured values from patent US10409869B2, “(R)- and (S)-1-(3-(3-N,N-dimethylaminocarbonyl)phenoxyl-4-nitrophenyl)-1-ethyl-N,N'-bis (ethylene)phosphoramidate, compositions and methods for their use and preparation” (OBI Pharma, Inc., priority 2015, dated 2019).

What was measured:
[1] = Plasma concentration and TK after 30-min IV infusion at 2 mg/kg; assay type: in vivo, Cynomolgus monkeys; conditions: for AUC(0-inf) / AUC(0-t): Cynomolgus, cynomolgus monkey, plasma, iv, 2 mg/kg
Method: (§1) TH 3423 and TH 3424 were tested in […] naïve monkeys (1 male and one female for each compound at 2 mg/kg) with 30-min intravenous infusion, TK sampling: on Day 1 and Day 15: 0.25, 0.5, 0.75, 1 and 2 hr post infusion initiation. Serum chemistry and hematology: pre-dose (Day 1), day 5, day 8 (pre-dose), day 15 (pre-dose), day 22 and day 28. Clinical observation: Daily during the study, total 35 days. Food consumption: Daily during the study, total 35 days. Bodyweight measurement: Twice weekly for five weeks.

[2] = Serum chemistry in monkeys, 2 mg/kg 30-min IV infusion; assay type: in vivo, Cynomolgus monkeys
Method: as §1

## C[C@@H](OP(=O)(N1CC1)N1CC1)c1ccc([N+](=O)[O-])c(Oc2cccc(C(=O)N(C)C)c2)c1 (single isomer, unassigned) [TH3423]
[1]; 2 hr, female
  Plasma concentration: BQL
[1]; both sexes, Mean
  AUC(0-inf): 770 ng·h/mL
  AUC(0-t): 766 ng·h/mL
[1]; female
  AUC(0-inf): 766 ng·h/mL
  AUC(0-t): 758 ng·h/mL
[1]; male
  AUC(0-inf): 774 ng·h/mL
  AUC(0-t): 773 ng·h/mL
[2]; female, Day 1 (pre-dose)
  A/G: 1.8
  ALB: 42 g/L
  ALP: 205.5 U/L
  ALT: 41.7 U/L
  AST: 43.3 U/L
  BUN: 4.06 mM
  CK: 342 U/L
  CREA: 95 µM
  Ca: 2.39 mmol/L
  GLB: 24 g/L
  Glu: 6.03 mM
  K: 6.14 mmol/L
  Na: 146 mmol/L
  TBIL: 0.0 µM
  TC: 2.48 mM
  TG: 0.45 mmol/L
  TP: 66.0 g/L
  γ-GT: 41.5 U/L
[2]; female, Day 8 (pre-dose)
  A/G: 1.3
  ALB: 40.9 g/L
  ALP: 190.3 U/L
  ALT: 25.5 U/L
  AST: 57.7 U/L
  BUN: 7.61 mM
  CK: 126 U/L
  CREA: 120 µM
  Ca: 2.47 mmol/L
  GLB: 30.9 g/L
  Glu: 2.13 mM
  K: 4.83 mmol/L
  Na: 149 mmol/L
  TBIL: 0.4 µM
  TC: 3.01 mM
  TG: 1.17 mmol/L
  TP: 71.8 g/L
  γ-GT: 37.0 U/L
[2]; female, Day 15 (pre-dose)
  A/G: 1.7
  ALB: 34.2 g/L
  ALP: 123.6 U/L
  ALT: 21.1 U/L
  AST: 76.7 U/L
  BUN: 5.96 mM
  CK: 78 U/L
  CREA: 69 µM
  Ca: 2.36 mmol/L
  GLB: 20.7 g/L
  Glu: 2.51 mM
  K: 4.81 mmol/L
  Na: 128.17 mmol/L
  TBIL: 1.4 µM
  TC: 2.02 mM
  TG: 0.84 mmol/L
  TP: 54.9 g/L
  γ-GT: 29.4 U/L
[2]; male, Day 1 (pre-dose)
  A/G: 1.8
  ALB: 46.9 g/L
  ALP: 746.4 U/L
  ALT: 45.0 U/L
  AST: 37.0 U/L
  BUN: 3.47 mM
  CK: 146 U/L
  CREA: 66 µM
  Ca: 2.54 mmol/L
  GLB: 26 g/L
  Glu: 3.12 mM
  K: 6.92 mmol/L
  Na: 143 mmol/L
  TBIL: 5.2 µM
  TC: 2.1 mM
  TG: 0.24 mmol/L
  TP: 72.9 g/L
  γ-GT: 78.4 U/L
[2]; male, Day 8 (pre-dose)
  A/G: 1.1
  ALB: 39.1 g/L
  ALP: 540.3 U/L
  ALT: 21.0 U/L
  AST: 40.8 U/L
  BUN: 26.8 mM
  CK: 153 U/L
  CREA: 141 µM
  Ca: 2.55 mmol/L
  GLB: 37.1 g/L
  Glu: 5.28 mM
  K: 5.86 mmol/L
  Na: 112 mmol/L
  TBIL: 9.8 µM
  TC: 1.72 mM
  TG: 2.25 mmol/L
  TP: 76.2 g/L
  γ-GT: 37.6 U/L
